# In the supplement of paper PMC10307832:
# How the values were obtained:
# Assay in all cases: relative viability (nuclei count vs DMSO), 5 days (fraction); higher = more cells survive
# BAY61-3606 + Olaparib = compound: COC1=C(C=C(C=C1)C2=CC3=NC=CN3C(=N2)NC4=C(C=CC=N4)C(=O)N)OC [BAY61-3606] + O=C(c1cc(Cc2n[nH]c(=O)c3ccccc23)ccc1F)N1CCN(C(=O)C2CC2)CC1 [Olaparib] (partner 8 µM)
# Method in brief: (§1)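 After 5 days of treatment, lung cancer cells in 1536-well plates were fixed and stained in a single step (final 0.05% Triton X-100, 1% formaldehyde, 1 ug/ml Hoechst) and their nuclei counted on 4× images. Treatment had been applied by pin tool the day after seeding as one drug alone or as a fixed anchor-drug dose with five library-drug doses (not always all listed) in √10 steps. Relative viability is the nuclei count of treated wells divided by that of vehicle wells, and values are medians of duplicate plates.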
# Doxorubicin + Navitoclax = compound: COc1cccc2c1C(=O)c1c(O)c3c(c(O)c1C2=O)C[C@@](O)(C(=O)CO)C[C@@H]3O[C@H]1C[C@H](N)[C@H](O)[C@H](C)O1 [Doxorubicin] + CC1(C)CCC(c2ccc(Cl)cc2)=C(CN2CCN(c3ccc(C(=O)NS(=O)(=O)c4ccc(N[C@H](CCN5CCOCC5)CSc5ccccc5)c(S(=O)(=O)C(F)(F)F)c4)cc3)CC2)C1 [Navitoclax] (partner 0.5 µM)
# Method in brief: as §1
# [1] = compound: COc1cccc2c1C(=O)c1c(O)c3c(c(O)c1C2=O)C[C@@](O)(C(=O)CO)C[C@@H]3O[C@H]1C[C@H](N)[C@H](O)[C@H](C)O1 [Doxorubicin] + CC(=O)c1c(C)c2cnc(Nc3ccc(N4CCNCC4)cn3)nc2n(C2CCCC2)c1=O [Palbociclib] (partner 0.5 µM)
# Method in brief: as §1
# Doxorubicin + Lapatinib = compound: COc1cccc2c1C(=O)c1c(O)c3c(c(O)c1C2=O)C[C@@](O)(C(=O)CO)C[C@@H]3O[C@H]1C[C@H](N)[C@H](O)[C@H](C)O1 [Doxorubicin] + CS(=O)(=O)CCNCc1ccc(-c2ccc3ncnc(Nc4ccc(OCc5cccc(F)c5)c(Cl)c4)c3c2)o1 [Lapatinib] (partner 2 µM)
# Method in brief: as §1
cell line,measurement,setting,value
UMC-11,relative viability,BAY61-3606 + Olaparib; first compound 0.02 µM,0.351
same,relative viability,BAY61-3606 + Olaparib; first compound 0.06325 µM,0.385
same,relative viability,BAY61-3606 + Olaparib; first compound 0.2 µM,0.268
same,relative viability,BAY61-3606 + Olaparib; first compound 0.6325 µM,0.643
same,relative viability,BAY61-3606 + Olaparib; first compound 2 µM,0.266
same,relative viability,Doxorubicin + Navitoclax; first compound 0.001 µM,0.414
same,relative viability,Doxorubicin + Navitoclax; first compound 0.003162 µM,0.306
same,relative viability,Doxorubicin + Navitoclax; first compound 0.01 µM,0.323
same,relative viability,Doxorubicin + Navitoclax; first compound 0.03162 µM,0.229
same,relative viability,Doxorubicin + Navitoclax; first compound 0.1 µM,0.366
same,relative viability,[1]; first compound 0.001 µM,0.378
same,relative viability,[1]; first compound 0.003162 µM,0.339
same,relative viability,[1]; first compound 0.01 µM,0.314
same,relative viability,[1]; first compound 0.03162 µM,0.256
same,relative viability,[1]; first compound 0.1 µM,0.325
same,relative viability,Doxorubicin + Lapatinib; first compound 0.001 µM,1.22
same,relative viability,Doxorubicin + Lapatinib; first compound 0.003162 µM,1.13
same,relative viability,Doxorubicin + Lapatinib; first compound 0.01 µM,0.906
same,relative viability,Doxorubicin + Lapatinib; first compound 0.03162 µM,0.514
same,relative viability,Doxorubicin + Lapatinib; first compound 0.1 µM,0.456
